Results reported in ChEMBL document CHEMBL3507680, “University of Dundee, Gates Library screen for HepG2 cell viability”.

Experiment: Human HepG2 cell viability assay in 384 well format
Type: toxicity, cell-based
Set-up: dose 125 nL, time 70.5 hour; concentration not given beside the values
Conditions: HepG2 cells, read-out: Inhibition

Row | SMILES | cytotoxicity at 70.5 h [%]
1 | COc1ccc(-n2nnc(C(=O)NC(C)C)c2C2CC2)cc1 | -6.86
2 | O=S(=O)(NCc1ccccc1)Nc1ccc(-n2ccnc2)cc1 | 23.3
3 | Cc1nccn1CCN(C)C(=O)C1CCN(C(=O)C2CCCC2)CC1 | 8.88
4 | Cc1ccsc1CN1CC[C@H]2OCC[C@@]2(C(=O)N2CCCO2)C1 | 22.9
5 | CN(C)Cc1ccnc(C2CN(CCCc3ccccc3)CCO2)n1 (stereo unspecified) | -6.75
6 | Cc1[nH]c2ccc(CNc3cc(C#N)ccn3)cc2c1C | -4.75
7 | Cc1cc(N2CCCCC2)c(C#N)c(C)n1 | -5.91
8 | Cc1nccc([C@@H]2C[C@@H]3CCN(Cc4ccco4)C[C@H]3O2)n1 | 12.2
9 | O=C(CCCN1CCCCC1)N1CCN(C(=O)c2ccc[nH]2)CC1 | 3.29
10 | CCCn1ncnc1C(C)NC(=O)C1CCN(CC(N)=O)CC1 (stereo unspecified) | -6.92
11 | Cc1cc(F)ccc1NC(=O)NCC(C)N1CCOCC1 (stereo unspecified) | 32.7
12 | c1ccc(OCC2CC3(CCN(c4ncccn4)CC3)CO2)nc1 (stereo unspecified) | -19.6
13 | Cc1ccc(CN2C(=O)CCC2C(=O)Nc2cnn(C)c2)o1 (stereo unspecified) | -4.24
14 | Cc1nc[nH]c1CN(Cc1ccc(F)cc1)C1CC(C)(C)NC(C)(C)C1 | -2.59
15 | OCCOc1ccc(NCc2cccc3cccnc23)cn1 | 17.1
16 | CC(C)Oc1ccccc1NC(=O)N1CCC(n2cncn2)CC1 | -3.08
17 | OCC(O)CSCc1nnc(-c2cccc(F)c2)o1 (stereo unspecified) | -14.7
18 | CC1=Nc2c(c(=O)[nH]n2C(C)C)C(c2ccc3nccnc3c2)S1 (stereo unspecified) | -2.49
19 | CC(C)C(=O)N1CCN(C(=O)c2cc(C(C)C)on2)[C@H]2CS(=O)(=O)C[C@H]21 | 14.2
20 | CC(C)c1nc(-c2cc(C(=O)O)c3ccccn23)cs1 | 10.6
21 | O=C1CCNc2cc3c(cc2CN1CC1CC1)OCO3 | 0.558
22 | O=C(NCc1nc[nH]n1)c1cc(COc2cccc(C(F)(F)F)c2)[nH]n1 | 21.3
23 | OCCn1ncc2c1CN(CC1CCOc3ccccc3C1)C2 (stereo unspecified) | -0.723

Row | SMILES | cytotoxicity at 70.5 h [%]
24 | CC(NC(=O)NCCN1CCCCCC1=O)c1nncn1C (stereo unspecified) | 7.16
25 | Cc1ncc(CNc2cnccc2CO)s1 | 6.67
26 | c1cncc(CN2CC[C@@H]3O[C@H](COCCN4CCCC4)CC[C@@H]32)c1 | 5.3
27 | Cn1cnnc1C1CCCN(C(=O)c2cnc3ccccc3n2)C1 (stereo unspecified) | -1.48
28 | CCCC(=O)NCC(Cc1cccc(F)c1)N1CCCC1=O (stereo unspecified) | -3.15
29 | CN1CCCC(C(=O)N2CCC(Oc3ccc(C#N)cn3)CC2)C1 (stereo unspecified) | -5.58
30 | CN(C)CCN1C(=O)CC[C@@H]2[C@H]1CCN2C(=O)c1ccc(C#N)cc1 | -7.83
31 | COc1ccc(-c2cc(C[C@@H]3C[C@H](N(C)C)C3(C)C)no2)cc1 | 5.02
32 | Cc1ccc(NC2CCN(C(=O)c3cc(C(N)=O)cs3)CC2)nn1 | 11.5
33 | Cc1cc(C[S+]([O-])CC(=O)Nc2c(C)cccc2C)no1 (stereo unspecified) | -8.27
34 | CN(CCc1ccccn1)C(=O)CCC1CCCN(c2ncccn2)C1 (stereo unspecified) | -1.54
35 | CCO[C@H]1CC[C@H]2[C@H]1OCCN2CCOCc1ccccc1 | -11.1
36 | Cc1cc(-c2cnc(NC3CCCC3)nc2-c2ccoc2)on1 | -2.38
37 | Cc1cc(NCc2csc(-c3ccco3)n2)ccc1C(N)=O | -6.99
38 | COCCN(CCOC)Cc1nc2c(cnn2C)c(=O)[nH]1 | 7
39 | CC(C)c1nc(CN2CCN(Cc3ccccn3)CC2)cs1 | -3.18
40 | O=S1(=O)CCC(S(=O)(=O)c2cccc(S(=O)(=O)N3CCCC3)c2)C1 (stereo unspecified) | -12.1
41 | c1ccc(CN2Cc3[nH]nc(COCC4CC4)c3C2)nc1 | -4.63
42 | COCC(=O)N1CCN(S(=O)(=O)c2ccccc2)[C@@H](C(=O)OC)C1 | -5.08
43 | CC(=O)N1CCC(c2n[nH]cc2-c2ccnc(N)c2)C1 (stereo unspecified) | 15.7
44 | O=C(CCN1CCOC(Cn2cccn2)C1)NC1CCCC1 (stereo unspecified) | 17.5
45 | CCC(=O)N1CCC(Cc2ccccc2-c2cccc(C)c2)(C(N)=O)C1 (stereo unspecified) | 12.2
46 | CCc1ccc(NC(C(N)=O)c2ccc(F)cc2)cc1 (stereo unspecified) | -5.1

Row | SMILES | cytotoxicity at 70.5 h [%]
47 | O=C1CC(NCc2ccc(Cl)s2)CN1Cc1cccc(F)c1 (stereo unspecified) | -7.49
48 | O=C(NCCc1ccccc1)C1CCN(C(=O)Cn2cncn2)C1 (stereo unspecified) | -10.2
49 | CNC(=O)CCc1cc(C2CCCN2S(C)(=O)=O)nc(C)n1 (stereo unspecified) | -12.2
50 | CN(CC(O)C1CC1)C(=O)c1ccc(-c2nc(C3CC3)n[nH]2)cc1 (stereo unspecified) | -7.71
51 | CC1=N[C@@]2(CC[C@@H]3CN(S(=O)(=O)C4CC4)C[C@@H]32)C(=O)N1CC(C)C | 10.8
52 | O=C(NCC1CC1)[C@@H]1CC[C@@H]2[C@@H](CCN2Cc2ccc(F)c(F)c2)O1 | 2.42
53 | Cc1cc(NC(=O)C2CCN(c3nnc(C)c(C)c3C#N)CC2)no1 | 0.58
54 | O=C(C1CC(=O)N(c2ccccc2)C1)N1CCC2(CC1)OCCO2 (stereo unspecified) | 5.21
55 | COc1ccc(Cl)cc1CCNC(=O)NCc1cnn(C)c1C | -4.39
56 | O=C(COc1ccc(-c2ccccc2)nc1)NCC1CC1 | -5.26
57 | CCOCC(=O)N1CC[C@@H]2O[C@@H](C)C[C@H]2C1 | -11.3
58 | CCC(C)(NCC(=O)Nc1ccccc1)c1nc(C)cs1 (stereo unspecified) | -4.87
59 | Cc1ccc(CN2CCc3[nH]nc(C(=O)N(C)C)c3C2)s1 | 3.17
60 | COc1cc(C)c(C2CC(=O)NCc3nc4sccn4c32)cc1C (stereo unspecified) | -18
61 | CCc1noc(C(C)N2CCC(NC(=O)c3ccc(C)s3)CC2)n1 (stereo unspecified) | -7.01
62 | O=C(COc1ccccc1)NS(=O)(=O)Cc1ccccc1 | -1.17
63 | Cc1cc(CN2C[C@@H]3COC[C@H](C(=O)N4CCCCO4)[C@@H]3C2)oc1C | -11
64 | Cc1ccc(N2CCCN(C(=O)C(C(C)C)n3cncn3)CC2)nn1 (stereo unspecified) | 1.73
65 | CCC(C#N)NC(=O)CCCOc1cccc(C(C)=O)c1 (stereo unspecified) | -11.3
66 | Cn1cc(N2CCC3(CCN(C(=O)[C@H]4CCCO4)C3)C2=O)cn1 (stereo partly specified) | -7.22
67 | Cc1ccc(N2CCC(NC(C)c3cccs3)CC2)nc1 (stereo unspecified) | -2.5
68 | Cc1noc(C)c1CN1CC[C@H]2C[C@@H](c3ccncn3)O[C@@H]2C1 | -10.7
69 | OC(CN1CC(n2cccn2)C1)c1ccc2c(c1)OCCO2 (stereo unspecified) | -3.2

Row | SMILES | cytotoxicity at 70.5 h [%]
70 | Cc1ccc(S(=O)(=O)N(CCO)C2CC2)cc1N(C)C | 2.04
71 | CN1CCCc2cc(-c3cncn3CC(=O)NC(C)(C)C)ccc21 | -16.5
72 | CN(C)C(=O)[C@H]1C[C@H]2OCC[C@H]2N(Cc2ccc3c(c2)OCO3)C1 | 0.648
73 | C[C@@H](CO)Nc1nccc(-c2cnc3sc(Cl)cn3c2=O)n1 | -8.27
74 | CN(CCc1cccc2ccccc12)Cc1nc(N)nc(N(C)C)n1 | 28.3
75 | CC(O)CN1CCN(C(=O)c2cn(-c3ccccc3Cl)nn2)CC1 (stereo unspecified) | -9.71
76 | NCCCC(=O)NCC1(O)CCN(c2ccnc3cccnc23)C1 (stereo unspecified) | -7.06
77 | Cc1cc(C(F)(F)F)nn1C(C)C(=O)Nc1ccncc1 (stereo unspecified) | 23.9
78 | CS(=O)(=O)c1ccc(NC(=O)CSc2ccc3c(c2)CCC3)cc1 | 1.38
79 | COc1ccc(OCCc2cc(C3CNCCO3)nn2C)cc1 (stereo unspecified) | 12.2
80 | CNC(=O)CN(C)C(=O)c1cc2ccccc2cc1OC | -17.8
81 | CN(C)C(=O)CN1CC=C(c2cnn(Cc3ccccc3)c2)CC1 | -15.3
82 | Cc1nn(C)c2nc(N(C)CCN(C)C)sc12 | -9.29
83 | CC1CCCN(S(=O)(=O)NCc2ccccc2Cn2cncn2)C1 (stereo unspecified) | -10.6
84 | CN(Cc1nnnn1C1CC1)c1cccc2ccccc12 | 0.192
85 | O=C(NC1CC1)c1ccc(SCc2cscn2)cc1 | -9.79
86 | CCOC(=O)NCCC(=O)NCc1ccnc(Oc2ccc(F)cc2)c1 | -1.77
87 | Cn1ncc2c(=O)[nH]c(CN(Cc3cccc(F)c3)C3CC3)nc21 | 1.56
88 | Cc1cc(=O)n(C)cc1NC(=O)CC1CCC1 | -2.84
89 | Cc1cnn(CC2CCCCN2Cc2cc(C)on2)c1 (stereo unspecified) | -18.5
90 | N#CCc1ccc(OCC(=O)N2CCCC(n3cccn3)C2)cc1 (stereo unspecified) | -10.5
91 | Cc1cc(CC(=O)NC2CCCN(Cc3ccccc3)C2=O)n[nH]1 (stereo unspecified) | -21.2
92 | CCN(CC(=O)NC(C)C)S(=O)(=O)N1CCCC(C)C1 (stereo unspecified) | -1.39

Row | SMILES | cytotoxicity at 70.5 h [%]
93 | CCOc1cc(CN(C)CCC#N)ccc1OC(F)F | -5.38
94 | COc1coc(CN2CCCC3(CCC(=O)N(CC4CC4)C3)C2)cc1=O (stereo unspecified) | -8.43
95 | CC(C)c1n[nH]c(C2CN(C(=O)c3ncoc3C(C)C)CCO2)n1 (stereo unspecified) | -2.71
96 | O=C(Nc1ccc(Br)cc1F)c1cc(CN2CCOCC2)on1 | -5.21
97 | CC(=O)N1CCN(c2cc(-n3cccc3)ncn2)CC1 | -7.94
98 | CC(C)CCC(=O)N1C[C@H]2CCN[C@H]2C1 | -3.29
99 | O=c1cc(N2CCCC2)cnn1CCc1cccc(F)c1 | 34.6
100 | Cc1cc(F)c(S(=O)(=O)NCC(C)(C)N)cc1F | -10.9
101 | Cc1nc(C)n(CC2CCCN2CCCOc2ccc(C#N)cc2)n1 (stereo unspecified) | -4.85
102 | CN1[C@H]2CC[C@@H]1CN(C(=O)c1ccc(-c3ccccc3)[nH]1)CC2 | -2.64
103 | COC(=O)c1ccc2c(c1)CCCN2S(=O)(=O)c1cn(C)c(C)n1 | 1.33
104 | Cc1noc(NC(=O)c2ccc(Br)s2)n1 | 24.3
105 | N#Cc1ccc(C2CC(=O)Nc3c(C(=O)O)nsc32)cc1 (stereo unspecified) | -5.94
106 | COc1cccc(-c2cc(C(=O)N3N=C(C)CC3(O)C(F)(F)F)[nH]n2)c1 (stereo unspecified) | -16.8
107 | CCCN1CCN(Cc2cc3cc(OCC)ccc3[nH]c2=O)CC1 | -6.17
108 | COc1ccc2nnc(CCCC(=O)NCCc3ccccc3)n2n1 | -9.61
109 | O=C([C@H]1CCS(=O)(=O)[C@@H]2CN(CCc3ccccc3)C[C@H]12)N1CCCC1 | -1.64
110 | CCOCc1cncc2c1CCN(C(=O)c1cscn1)C2 | -4.56
111 | Cc1nc(CNC(=O)NC2CCN(c3cccc(Cl)c3)C2)no1 (stereo unspecified) | -1.4
